The structures appear in SMILES notation. Active and inactive are the calls of the source. The calls are words filed in the database; no cut-off is given here.

For data set [1], the target named is T1, Beta-secretase 1 (Homo sapiens, UniProt P56817). The experiment in a line: Inhibition of BACE1 in human HEK293 cells expressing swedish mutant APP. The format is cell-based.
Data set [2] addresses T1, Beta-secretase 1. The experiment in a line: Ratio of IC50 for BACE1 in human HEK293 cells expressing swedish mutant AP to IC50 for BACE1. The class given is cell-based.
The target of data set [3] is T1, Beta-secretase 1. Briefly: Inhibition of BACE1 by HPLC method.
A further data set concerns P-glycoprotein. The experiment in a line: Efflux ratio of permeability across basolateral to apical side over apical to basolateral side in human Caco2 cells expressing p-glycoprotein. The format is ADME, cell-based. The note with it: Caco-2. For orientation: Caco-2 cells form a polarised layer with tight junctions and transporters.
Data set [4] can be described thus: Selectivity for BACE1 over cathepsin E.
A short description of data set [5]: Selectivity for BACE1 over pepsin.
Data set [6] is described as follows: Selectivity for BACE1 over cathepsin D.
The nature of data set [7]: Drug level in plasma of transgenic 2576 mouse at 30 mg/kg, sc measured after 5 hrs. The class given is ADME, organism-based. Further details: dose 30 mg/kg, route subcutaneous.
Data set [8] is described as follows: Drug level in brain of transgenic 2576 mouse at 30 mg/kg, sc measured after 5 hrs. Further details: dose 30 mg/kg, route subcutaneous. The note with it: read-out: Drug uptake. The class given is ADME, organism-based.
Data set [9] concerns Mus musculus. Briefly: Antialzheimer activity in transgenic 2576 mouse assessed as reduction in plasma amyloid beta level at 30 mg/kg, sc measured after 5 hrs relative to control. Further details: scale not given: the % may be the effect or the level left. The following applies: route subcutaneous. The format is functional.
Data set [10] concerns Mus musculus. The experiment in a line: Antialzheimer activity in transgenic 2576 mouse assessed as reduction in brain amyloid beta level at 30 mg/kg, sc measured after 5 hrs relative to control. The arrangement: dose 30 mg/kg. The class given is functional, organism-based.
A short description of data set [11]: Ratio drug level in brain to plasma of transgenic 2576 mouse at 30 mg/kg, sc measured after 5 hrs. The following applies: read-out: BPR. The format is ADME, organism-based. The arrangement: dose 30 mg/kg, route subcutaneous.
Data set [12] is described as follows: Fraction unbound in plasma of transgenic 2576 mouse at 30 mg/kg, sc measured after 5 hrs. The format is ADME, organism-based. The arrangement: dose 30 mg/kg, route subcutaneous.
Data set [13] can be described thus: Plasma concentration in CD-IGS rat at 30 mg/kg, ip measured after 5 hrs. The arrangement: dose 30 mg/kg, route intraperitoneal. The class given is ADME, organism-based.
Data set [14] is described as follows: Fraction unbound in plasma of CD-IGS rat at 30 mg/kg, ip measured after 5 hrs. The class given is ADME, organism-based. The arrangement: dose 30 mg/kg, route intraperitoneal.
For data set [15], the system named is Rattus norvegicus. Briefly: Antialzheimer activity in CD-IGS rat assessed as reduction in brain amyloid beta level at 30 mg/kg, ip measured after 5 hrs relative to control. The class given is functional. The note with it: route intraperitoneal. The arrangement: scale not given: the % may be the effect or the level left.
Data set [16] deals with Rattus norvegicus. Briefly: Antialzheimer activity in CD-IGS rat assessed as reduction in plasma amyloid beta level at 30 mg/kg, ip measured after 5 hrs relative to control. The arrangement: scale not given: the % may be the effect or the level left. The note with it: route intraperitoneal. The format is functional.
Data set [17] is described as follows: Ratio drug level in brain to plasma of CD-IGS rat at 30 mg/kg, ip measured after 5 hrs. The following applies: read-out: BPR. The class given is ADME, organism-based. Further details: dose 30 mg/kg, route intraperitoneal.

T1 sequence (P56817 whole entry): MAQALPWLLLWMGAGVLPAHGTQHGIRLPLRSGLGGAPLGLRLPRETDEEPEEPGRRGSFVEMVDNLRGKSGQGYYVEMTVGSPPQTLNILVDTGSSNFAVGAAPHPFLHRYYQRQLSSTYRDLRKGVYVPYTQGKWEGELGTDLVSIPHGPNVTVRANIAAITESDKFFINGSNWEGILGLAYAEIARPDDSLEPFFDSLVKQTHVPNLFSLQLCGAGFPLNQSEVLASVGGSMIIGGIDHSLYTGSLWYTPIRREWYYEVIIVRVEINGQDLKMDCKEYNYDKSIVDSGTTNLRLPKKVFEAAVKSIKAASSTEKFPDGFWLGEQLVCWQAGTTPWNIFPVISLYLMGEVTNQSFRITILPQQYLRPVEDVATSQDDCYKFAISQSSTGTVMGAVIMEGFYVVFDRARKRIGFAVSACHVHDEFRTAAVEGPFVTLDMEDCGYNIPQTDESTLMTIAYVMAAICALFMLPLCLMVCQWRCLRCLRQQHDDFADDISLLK

The term IC50 denotes the concentration that inhibits the measured activity by half. `CCCC[C@H]1CCN([C@@H](C)C(=O)N[C@@H](Cc2cc(F)cc(F)c2)[C@H](O)[C@H]2Cc3ccccc3CN2)C1=O` gave an IC50 at Beta-secretase 1 [1] of 720 nM. In addition, the Ratio IC50 at Beta-secretase 1 [2] is > 10.

In the case of `CCCC[C@H]1CCN([C@@H](CCc2ccccc2)C(=O)N[C@@H](Cc2cc(F)cc(F)c2)[C@H](O)[C@H]2Cc3ccccc3CN2)C1=O`, the midpoint of inhibition on Beta-secretase 1 [1], the IC50, lay at 1400 nM. The Ratio IC50 at Beta-secretase 1 [2] was > 10.

As usually defined, the efflux ratio is the permeability from basolateral to apical divided by that in the opposite direction, in the common usage. With `CCCO[C@H]1CN[C@@H]([C@@H](O)[C@H](Cc2cc(F)cc(F)c2)NC(=O)[C@H](C)N2CC[C@H](CC(C)C)C2=O)C1`, the IC50 was found to be 110 nM on Beta-secretase 1 [1] and 35 nM against Beta-secretase 1 [3]. In addition, in the data set with P-glycoprotein, the efflux ratio turned out to be 32.

`CCCO[C@H]1CN[C@@H]([C@@H](O)[C@H](Cc2cc(F)cc(F)c2)NC(=O)[C@H](CCc2ccccc2)N2CC[C@](NC(C)=O)(C(C)CC)C2=O)C1` (some centres undefined): the IC50 against Beta-secretase 1 [1] turned out to be 2.7 nM; on Beta-secretase 1 [3] it was 2.6 nM. The Selectivity ratio in [4], in data set [5] and in [6] was 31 throughout.

Regarding `CCCO[C@H]1CN[C@@H]([C@@H](O)[C@H](Cc2cc(F)cc(F)c2)NC(=O)[C@H](CCc2ccccc2)N2CC[C@@](CC(C)C)(NC(C)=O)C2=O)C1`, the IC50 at Beta-secretase 1 [1] came out at 2 nM. Moreover, in the data set with P-glycoprotein, the efflux ratio was > 12.

The term fraction unbound denotes free concentration divided by total concentration. `CCC(C)[C@@]1(NC(C)=O)CCN([C@@H](CCc2ccccc2)C(=O)N[C@@H](Cc2cc(F)cc(F)c2)[C@H](O)[C@H]2C[C@H](O)CN2)C1=O` (some centres undefined): the figures for the IC50 against Beta-secretase 1 [1] and against Beta-secretase 1 [3] were 11 nM and 0.89 nM, respectively. For the same compound, the Selectivity ratio in data set [4], in data set [5] and in [6] was 3400 each time. The concentration at 5 h turned out to be 780 nM in data set [7] and 680 nM in [8]. Also, the Activity in the data set on Mus musculus [9] was 66%. For the same compound, in the data set with Mus musculus [10], the outcome was inactive. Further, the Kp at 5 h in data set [11] amounted to 0.87. Moreover, the fraction unbound at 5 h in [12] was found to be 0.1.

`CCCC[C@H]1CCN([C@@H](C)C(=O)N[C@@H](Cc2cc(F)cc(F)c2)[C@H](O)CNCc2cccc(OC)c2)C1=O`: the IC50 against Beta-secretase 1 [1] worked out at 81 nM; at Beta-secretase 1 [3], 60 nM. The concentration at 5 h in data set [13] was determined as 1600 nM. In data set [14], this compound yielded a fraction unbound at 5 h of 0.029. Further, the Activity in the data set on Rattus norvegicus [15] stood at 112%; in the data set on Rattus norvegicus [16], 26%. Moreover, the Kp at 5 h in [17] turned out to be 0.18.

Turning to `CCCC[C@H]1CCN([C@@H](CCc2ccccc2)C(=O)N[C@@H](Cc2cc(F)cc(F)c2)[C@H](O)[C@H]2C[C@@H](OCCC)CN2)C1=O`, the IC50 against Beta-secretase 1 [1] came to 84 nM; against Beta-secretase 1 [3], 19 nM. Moreover, the concentration at 5 h in data set [13] amounted to 4000 nM. For the same compound, the results for the Activity in the data set with Rattus norvegicus [15] and in the data set with Rattus norvegicus [16] were 114% and 23%, respectively. For the same compound, in data set [17], the Kp at 5 h was 0.02.

Consider `CCCC[C@H]1CCN([C@@H](C)C(=O)N[C@@H](Cc2cc(F)cc(F)c2)[C@H](O)[C@H]2C[C@@H](OCCC)CN2)C1=O`, for which the IC50 at Beta-secretase 1 [1] was determined as 68 nM; against Beta-secretase 1 [3], 87 nM. Moreover, in the data set on P-glycoprotein, the efflux ratio is > 17.

`CCCO[C@H]1CN[C@@H]([C@@H](O)[C@H](Cc2cc(F)cc(F)c2)NC(=O)[C@H](CCc2ccccc2)N2CC[C@H](CC(C)C)C2=O)C1`: the IC50 was 69 nM at Beta-secretase 1 [1] and 5.7 nM against Beta-secretase 1 [3].

On to `CCC[C@@H](O)[C@H]1CCN([C@@H](CCc2ccccc2)C(=O)N[C@@H](Cc2cc(F)cc(F)c2)[C@H](O)[C@H]2C[C@H](O)CN2)C1=O`, for which the IC50 against Beta-secretase 1 [1] was 220 nM; against Beta-secretase 1 [3], 16 nM.

Consider `CCC[C@@H](O)[C@H]1CCN([C@@H](C)C(=O)N[C@@H](Cc2cc(F)cc(F)c2)[C@H](O)CNCc2cccc(OC)c2)C1=O`, for which the IC50 against Beta-secretase 1 [1] amounted to 27 nM; against Beta-secretase 1 [3], 68 nM.

As to `CC(=O)N[C@]1(CC(C)C)CCN([C@@H](CCc2ccccc2)C(=O)N[C@@H](Cc2cc(F)cc(F)c2)[C@H](O)[C@H]2Cc3ccccc3CN2)C1=O`, the IC50 was 9.5 nM on Beta-secretase 1 [1] and 8.6 nM against Beta-secretase 1 [3].

With `CCCO[C@H]1CN[C@@H]([C@@H](O)[C@H](Cc2cc(F)cc(F)c2)NC(=O)[C@H](CCc2ccccc2)N2CC[C@H](C(C)C)C2=O)C1`, the IC50 at Beta-secretase 1 [1] came out at 99 nM; against Beta-secretase 1 [3], 21 nM.

Consider `CCC(C)[C@@]1(NC(C)=O)CCN([C@@H](CCc2ccccc2)C(=O)N[C@@H](Cc2cc(F)cc(F)c2)[C@H](O)[C@H]2C[C@@H](OCc3ccc(F)cc3)CN2)C1=O` (some centres undefined), for which the IC50 at Beta-secretase 1 [1] was determined as 8.9 nM; against Beta-secretase 1 [3], 10 nM.

On to `CCCO[C@H]1CN[C@@H]([C@@H](O)[C@H](Cc2cc(F)cc(F)c2)NC(=O)[C@H](C)N2CC[C@H]([C@H](O)CCC)C2=O)C1`, for which the values for the IC50 against Beta-secretase 1 [1] and on Beta-secretase 1 [3] were 55 nM and 70 nM, respectively.

Regarding `COC[C@H]1CCN([C@@H](CCc2ccccc2)C(=O)N[C@@H](Cc2cc(F)cc(F)c2)[C@H](O)CNCc2cccc(OC)c2)C1=O`, the values for the IC50 against Beta-secretase 1 [1] and at Beta-secretase 1 [3] were 210 nM and 32 nM, respectively.

As to `COc1cccc(CNC[C@@H](O)[C@H](Cc2cc(F)cc(F)c2)NC(=O)[C@H](C)N2CC[C@@](CC3CC3)(NC(C)=O)C2=O)c1`, the IC50 on Beta-secretase 1 [1] was 27 nM; at Beta-secretase 1 [3] it was 46 nM.

The values are drawn from ChEMBL document CHEMBL1914313, “Monosubstituted γ-lactam and conformationally constrained 1,3-diaminopropan-2-ol transition-state isostere inhibitors of β-secretase (BACE)” (Bioorg Med Chem Lett, 2011).
